Experimental data reported in patent US6335436B1, “Oligonucleotides active against drug-resistant bacteria” (priority 1995, dated 2002).

Legend:
Assay type in all cases: cell-based, Mycobacterium smegmatis
M. smegmatis ATCC 607 [1] = experiment: Inhibition of M. smegmatis growth in broth cultures (cell counts); details: for Cell Numbers per ml × 10^6: no ODS
M. smegmatis mc^2155 = experiment: MIC of ethambutol in the presence of oligodeoxynucleotide phosphorothioates in broth cultures; details: Mycolicibacterium smegmatis, 336 h, no ODS, at least 99% inhibition of cell growth during two weeks
M. smegmatis ATCC 607 [2] = experiment: as above; details: Mycolicibacterium smegmatis, ATCC607, 336 h, read-out: MIC of ethambutol

## CC[C@@H](CO)NCCN[C@@H](CC)CO [Ethambutol, ethambutol]
M. smegmatis ATCC 607 [1]; Table I, ethambutol 0.5 ug/ml alone, 24 hrs
  Cell Numbers per ml × 10^6: 71 × 10^6 cells per ml
M. smegmatis ATCC 607 [1]; Table I, ethambutol 0.5 ug/ml alone, 48 hrs
  Cell Numbers per ml × 10^6: 240 × 10^6 cells per ml
M. smegmatis ATCC 607 [1]; Table I, ethambutol 0.5 ug/ml alone, 72 hrs
  Cell Numbers per ml × 10^6: 411 × 10^6 cells per ml
M. smegmatis ATCC 607 [1]; Table I, ethambutol 1 ug/ml alone, 24 hrs
  Cell Numbers per ml × 10^6: 39 × 10^6 cells per ml
M. smegmatis ATCC 607 [1]; Table I, ethambutol 1 ug/ml alone, 48 hrs
  Cell Numbers per ml × 10^6: 109 × 10^6 cells per ml
M. smegmatis ATCC 607 [1]; Table I, ethambutol 1 ug/ml alone, 72 hrs
  Cell Numbers per ml × 10^6: 172 × 10^6 cells per ml
M. smegmatis ATCC 607 [1]; Table I, ethambutol 5 ug/ml alone, 24 hrs
  Cell Numbers per ml × 10^6: 25 × 10^6 cells per ml
M. smegmatis ATCC 607 [1]; Table I, ethambutol 5 ug/ml alone, 48 hrs
  Cell Numbers per ml × 10^6: 68 × 10^6 cells per ml
M. smegmatis ATCC 607 [1]; Table I, ethambutol 5 ug/ml alone, 72 hrs
  Cell Numbers per ml × 10^6: 111 × 10^6 cells per ml
M. smegmatis ATCC 607 [1]; Table III, ethambutol 0.5 μg/ml alone, 24 hrs
  Cell Numbers per ml × 10^6: 77 × 10^6 cells per ml
M. smegmatis ATCC 607 [1]; Table III, ethambutol 0.5 μg/ml alone, 48 hrs
  Cell Numbers per ml × 10^6: 189 × 10^6 cells per ml
M. smegmatis ATCC 607 [1]; Table III, ethambutol 0.5 μg/ml alone, 72 hrs
  Cell Numbers per ml × 10^6: 388 × 10^6 cells per ml
M. smegmatis mc^2155
  MIC: 30 µg/mL
M. smegmatis ATCC 607 [2]
  MIC: 25 µg/mL

## N[C@@H]1CONC1=O [D-cycloserine]
M. smegmatis ATCC 607 [1]; Table IV, free D-cycloserine 1 μg/ml alone, 24 hrs
  Cell Numbers per ml × 10^6: 617 × 10^6 cells per ml
M. smegmatis ATCC 607 [1]; Table IV, free D-cycloserine 1 μg/ml alone, 48 hrs
  Cell Numbers per ml × 10^6: 549 × 10^6 cells per ml
M. smegmatis ATCC 607 [1]; Table IV, free D-cycloserine 1 μg/ml alone, 72 hrs
  Cell Numbers per ml × 10^6: 504 × 10^6 cells per ml
M. smegmatis ATCC 607 [1]; Table IV, free D-cycloserine 5 μg/ml alone, 24 hrs
  Cell Numbers per ml × 10^6: 551 × 10^6 cells per ml
M. smegmatis ATCC 607 [1]; Table IV, free D-cycloserine 5 μg/ml alone, 48 hrs
  Cell Numbers per ml × 10^6: 482 × 10^6 cells per ml
M. smegmatis ATCC 607 [1]; Table IV, free D-cycloserine 5 μg/ml alone, 72 hrs
  Cell Numbers per ml × 10^6: 420 × 10^6 cells per ml
M. smegmatis ATCC 607 [1]; Table IV, free D-cycloserine 30 μg/ml alone, 24 hrs
  Cell Numbers per ml × 10^6: 363 × 10^6 cells per ml
M. smegmatis ATCC 607 [1]; Table IV, free D-cycloserine 30 μg/ml alone, 48 hrs
  Cell Numbers per ml × 10^6: 291 × 10^6 cells per ml
M. smegmatis ATCC 607 [1]; Table IV, free D-cycloserine 30 μg/ml alone, 72 hrs
  Cell Numbers per ml × 10^6: 236 × 10^6 cells per ml
M. smegmatis ATCC 607 [1]; free D-cycloserine in liquid medium, 1.0 μg/ml
  inhibition of growth: minimal inhibition of growth
M. smegmatis ATCC 607 [1]; free D-cycloserine in liquid medium, 10-30 μg/ml
  inhibition of M. smegmatis growth: significant inhibition
